The values below come from patent US11198686B2, “Crystal form and salt form of pyridone compound and preparation method therefor” (GUANGZHOU JOYO PHARMATECH CO., LTD., priority 2017, dated 2021).

Each structure is given as a SMILES string. ≈ marks a conversion by molar mass, not a printed value. A value given as a limit tells only on which side of the number the result lay.

A word on the solubility: it is the dissolved amount per volume that the medium holds. A word on the inhibition: it is the share of the control response that was lost under treatment. The low end stands for a response near the control, the high end for a response far below the control.

The nature of data set [1]: Solid-state stability test of crystal form A under high temperature and high humidity (HPLC, XRPD). The class given is physicochemical. The note with it: for Appearance / Crystal form / Purity / Total impurities: open. The method, then:
16 samples of 10 mg of crystal form A were weighed in parallel and spread evenly on the bottom of glass bottles, and 8 samples of 20 mg of crystal form A were spread out into a thin layer. All sample bottles were sealed with aluminum foil, and some small holes were punched on the aluminum foil to allow the samples to fully contact with the ambient air. The samples were placed at 40° C./75% RH and 60° C./75% RH for 1 month, 2 months and 3 months, respectively.
Analytical method: Agilent 1260 HPLC with DAD detector or Waters 2695 HPLC with PDA detector was used: column: Waters Atlantis dC18 (4.6 mm×150 mm, 3.0 μm); column temperature: 40° C.; flow rate: 1.0 mL/min; detection wavelength: 230 nm; injection volume: 10 μL; sample concentration: 0.5 mg/mL; diluent: acetonitrile:water=1:1 (v/v); the following mobile phase gradients were used for analysis: […]

Data set [2] in a line: Solid-state physical stability test of crystal form A under different temperature, humidity and light irradiation. Type of data set: physicochemical. The following applies: for Appearance / Crystal form: 10 d. The method, then: 4 samples of 100 mg of crystal form A solid were weighed in parallel and spread evenly on the bottom of the glass bottles into a thin layer. The bottles were sealed with aluminum foil, and some small holes were punched on the aluminum foil to allow the sample to be fully in contact with the ambient air. The 4 samples prepared were placed under the conditions of 25° C./92.5% RH, 60° C., 40° C./75% RH and light irradiation, and the physical stability of the samples on the 10th day was examined. In the meantime, about 100 mg of crystal form A solid was weighed separately, placed on the bottom of a glass sample bottle, sealed with a screw cap and stored at −20° C., this sample was used as the control sample. On the 10th day, all samples were taken out, and returned to room temperature. The appearance change of the samples was observed, and XRPD was used to detect the crystal form of the samples. By comparing the accelerated samples with the control sample, the solid-state physical stability of crystal form A of Compound 1 was determined.

A short description of data set [3]: Study on polymorphism of Compound 1 (suspension in solvents, XRPD). Type of data set: physicochemical. The following applies: for Crystal form: 40° C., 2 days. The method, then: Approximate 50 mg of the sample were weighed and added to separate 4.0 mL glass vials, respectively, followed by addition of an appropriate amount of the solvents or solvent mixture (see the table below) to give a suspension. After shaking at 40° C. for 2 days, all the samples were taken out and centrifuged in a centrifuge at 8000 r/min for 5 minutes. The supernatant was discarded, and the remaining solid was dried in a 35° C. vacuum drying box for two days. The dried samples were taken out for XRPD detection.

The nature of data set [4]: Approximate solubility of crystal form A in different solvents (manual stepwise dilution). Type of data set: physicochemical. The following applies: thermodynamic from solid, ambient temperature. The method, then:
In this study, the method of manual stepwise dilution along with the observation of the dissolution under ambient temperature condition was used for determination. About 2 mg of crystal form A of Compound 1 was added to separate HPLC vials, followed by multiple addition of organic solvents or the mixed solvents (Table 5) in a small amount, and the dissolution of the compound was monitored.

The test system of the next data set is TNF-α. The data set is described as follows: Ex-vivo effect on endotoxin LPS-induced TNF-α in rat blood (ELISA). Type of data set: cell-based, Sprague Dawley rats. Here is the method: Experimental objective: testing the effect of Compound 1 on bacterial lipopolysaccharide (LPS)-induced TNF-α in rat blood to evaluate the anti-inflammatory effect ex-vivo
Sprague Dawley rats (male, 280-310 g, Shanghai Slac Laboratory Animal CO. LTD)
Rat TNF-alpha Quantikine ELISA Kit (R&D, #SRTA00)
A solution of the compound was prepared (5 mM or 1 mM), and 40 μL of the prepared solution was added into a 48-well cell culture plate, respectively (the final concentration of the compounds was 0.5 or 0.1 mM). The rats were anaesthetized with isoflurane and the blood was collected from the abdominal aorta (Heparin anticoagulant). The blood was added into the 48-well cell culture plate (320 μL per well) containing the compounds to be tested. Afterwards, the 48-well cell culture plate was incubated at 37° C. for 30 minutes. Then the plate was taken out, and 40 μL of LPS (the final concentration was 100 μg/mL) was added and mixed evenly. The resulting mixture was incubated at 37° C. After 5 hours, the 48-well plate was taken out and the blood was transferred into 1.5 mL centrifuge tubes and centrifuged in a centrifuge (4,500 rpm, 4° C., 5 min). The supernatant was isolated to obtain the plasma, which was aliquoted (20 μL per well) into a 96-well sample plate, and then sharp-frozen and preserved in a refrigerator (−80° C.). On the second day, the TNF-α level in the plasma samples was determined by using R&D ELISA kits according to the kit specification. The data was analyzed by EXCEL and Prism.
A general note: An ELISA detects its analyte on a solid surface through an enzyme-linked reagent.

The test system of data set [5] is idiopathic pulmonary fibrosis. Briefly: SD rat left unilateral pulmonary fibrosis model. The class given is in vivo.

Consider `CC1(c2ccc(=O)n(-c3ccsc3)c2)COC1` [crystal form A], for which the Appearance result was “White powder” in data set [1] (40° C./75% RH, 1 M); “White powder” in data set [1] (40° C./75% RH, 2 M); “White powder” in data set [1] (40° C./75% RH, 3 M); “White powder” in data set [1] (60° C./75% RH, 1 M); “White powder” in data set [1] (60° C./75% RH, 2 M); “White powder” in data set [1] (60° C./75% RH, 3 M). For the same molecule, the Appearance result in data set [2] (25° C./92.5% RH (open)), in data set [2] (40° C./75% RH (open)), in data set [2] (60° C. (open)) and in data set [2] (Light irradiation) was “White” in each case. In addition, the Crystal form result in data set [1] (40° C./75% RH, 1 M) was “Form A”; in data set [1] (40° C./75% RH, 2 M) it was “Form A”; in data set [1] (40° C./75% RH, 3 M), “Form A”; in data set [1] (60° C./75% RH, 1 M), “Form A”; in data set [1] (60° C./75% RH, 2 M) it was “Form A”; in data set [1] (60° C./75% RH, 3 M), “Form A”. For the same molecule, the Crystal form entry in data set [2] (25° C./92.5% RH (open)), in data set [2] (40° C./75% RH (open)), in data set [2] (60° C. (open)) and in data set [2] (Light irradiation) was “Form A” in each case. The Purity turned out to be 99.949% in data set [1] (40° C./75% RH, 1 M); 99.948% in data set [1] (40° C./75% RH, 2 M); 99.947% in data set [1] (40° C./75% RH, 3 M); 99.949% in data set [1] (60° C./75% RH, 1 M); 99.948% in data set [1] (60° C./75% RH, 2 M); 99.950% in data set [1] (60° C./75% RH, 3 M). The Total impurities is listed as 0.051% in data set [1] (40° C./75% RH, 1 M); 0.052% in data set [1] (40° C./75% RH, 2 M); 0.053% in data set [1] (40° C./75% RH, 3 M); 0.051% in data set [1] (60° C./75% RH, 1 M); 0.052% in data set [1] (60° C./75% RH, 2 M); 0.050% in data set [1] (60° C./75% RH, 3 M). For the same molecule, the “Solid-state stability (conclusion)” value in data set [1] (within three months, 40° C./75% RH and 60° C./75% RH) is recorded as “stable”. In data set [2] (within 10 days under each condition), the “Solid-state physical stability (conclusion)” value is “stable”. In addition, in data set [3] (under the conditions of the solvents of Table 4), the “Stability of crystal form in solvents (conclusion)” value is recorded as “stable”. The solubility in data set [4] (aqueous with cosolvent or surfactant or cyclodextrin, Acetone-water (1:2)) was 52 to 103 mg/mL (≈ 210 to 416 mM); in data set [4] (aqueous with cosolvent or surfactant or cyclodextrin, Acetonitrile-water (1:1)), over 100 mg/mL; in data set [4] (aqueous with cosolvent or surfactant or cyclodextrin, Ethanol-water (1:1)), over 100 mg/mL; in data set [4] (aqueous with cosolvent or surfactant or cyclodextrin, Ethanol-water (3:1)) it was over 104 mg/mL; in data set [4] (aqueous with cosolvent or surfactant or cyclodextrin, Isopropanol-water (1:1)) it was over 102 mg/mL; in data set [4] (aqueous with cosolvent or surfactant or cyclodextrin, Methanol-water (1:1)), over 102 mg/mL. Further, the solubility was over 104 mg/mL in data set [4] (aqueous with cosolvent or surfactant or cyclodextrin, Methanol-water (3:1)); over 102 mg/mL in data set [4] (organic solvent or mixture, 1,4-dioxane); 34 to 51 mg/mL (≈ 137 to 206 mM) in data set [4] (organic solvent or mixture, 2-Methyltetrahydrofuran); 52 to 103 mg/mL (≈ 210 to 416 mM) in data set [4] (organic solvent or mixture, Acetone); over 100 mg/mL in data set [4] (organic solvent or mixture, Acetonitrile); under 2 mg/mL in data set [4] (organic solvent or mixture, Cyclohexane). In addition, the solubility in data set [4] (organic solvent or mixture, Ethanol) is 51 to 102 mg/mL (≈ 206 to 412 mM); in data set [4] (organic solvent or mixture, Ethyl acetate), 34 to 51 mg/mL (≈ 137 to 206 mM); in data set [4] (organic solvent or mixture, Heptane), under 2 mg/mL; in data set [4] (organic solvent or mixture, Isopropanol), 34 to 52 mg/mL (≈ 137 to 210 mM); in data set [4] (organic solvent or mixture, Isopropyl acetate) it was 20 to 34 mg/mL (≈ 80.9 to 137 mM); in data set [4] (organic solvent or mixture, Methanol), over 104 mg/mL. Moreover, the solubility in data set [4] (organic solvent or mixture, Methyl ethyl ketone) was 52 to 104 mg/mL (≈ 210 to 421 mM); in data set [4] (organic solvent or mixture, Methyl isobutyl ketone) it was 34 to 51 mg/mL (≈ 137 to 206 mM); in data set [4] (organic solvent or mixture, Methyl tert-butyl ether), under 2 mg/mL; in data set [4] (organic solvent or mixture, Tetrahydrofuran), 51 to 102 mg/mL (≈ 206 to 412 mM); in data set [4] (organic solvent or mixture, Toluene), 35 to 52 mg/mL (≈ 142 to 210 mM); in data set [4] (organic solvent or mixture, n-butanol) it was 50 to 100 mg/mL (≈ 202 to 404 mM). In data set [4] (Water), the solubility was in the range of 10 to 21 mg/mL (≈ 40.4 to 84.9 mM). In the data set with TNF-α (final concentration 0.1 mM, inhibition significantly higher than Pirfenidone), the “Inhibitory effect on TNF-α level induced by LPS (in words)” value is “significant inhibitory effect”. In the data set with TNF-α (rat blood, LPS 100 μg/mL, compound 0.1 mM), this molecule came in with an inhibition at 100 µM of 80.8%. The “Inhibitory effect on idiopathic pulmonary fibrosis (in words)” value in data set [5] is reported as “significant inhibitory effect”.

In the data set with TNF-α (rat blood, LPS 100 μg/mL, compound 0.5 mM), `Cc1ccc(=O)n(-c2ccccc2)c1` [Pirfenidone (PFD), Pirfenidone, reference compound] showed an inhibition at 500 µM of 53.5%.

With `CC1(c2ccc(=O)n(-c3ccsc3)c2)COC1` [Compound 1], the Crystal form result in data set [3] (suspension in Acetone), in data set [3] (suspension in Acetone:Water (1:2)), in data set [3] (suspension in Acetonitrile), in data set [3] (suspension in Ethanol), in data set [3] (suspension in Ethyl acetate) and in data set [3] (suspension in Water) was “Form A” in each case.
